In patent US12378231B2, “Small molecules as monoacylglycerol lipase (MAGL) inhibitors, compositions and use thereof” (APOGEE PHARMACEUTICALS, INC., priority 2023, dated 2025) one finds IC50 data, which are given here for 27 molecules.

Usually IC50 stands for the point on the concentration scale where inhibition reaches its midpoint.

In one experiment the target is human recombinant FAAH (Homo sapiens (Human), UniProt O00519). In words: In vitro inhibition of human recombinant FAAH activity (Cayman FAAH inhibitor screening kit, AMC arachidonoyl amide hydrolysis). The class given is biochemical. An excerpt:
In brief, FAAH hydrolyzes AMC arachidonoyl amide resulting in the release of the fluorescent product, while the inhibitor will inhibit the FAAH activity and thus reduce the fluorescent signal.

The next experiment deals with human recombinant MAGL (Homo sapiens (Human), UniProt Q99685). The experiment is described as follows: In vitro inhibition of human recombinant MAGL activity (Cayman inhibitor screening kit, 4-nitrophenylacetate hydrolysis). To be noted: human recombinant MAGL; read-out: Inhibition on MAGL activity (IC50). The class given is biochemical. An excerpt: The inhibitory effect of the synthetic chemicals on activity of human recombinant MAGL was studied using commercial inhibitor screening kit (Cayman Chemical). […] The absorbance of the yellow product can be analyzed using the plate reader. […]
Sequence of human recombinant MAGL (Q99685 whole entry): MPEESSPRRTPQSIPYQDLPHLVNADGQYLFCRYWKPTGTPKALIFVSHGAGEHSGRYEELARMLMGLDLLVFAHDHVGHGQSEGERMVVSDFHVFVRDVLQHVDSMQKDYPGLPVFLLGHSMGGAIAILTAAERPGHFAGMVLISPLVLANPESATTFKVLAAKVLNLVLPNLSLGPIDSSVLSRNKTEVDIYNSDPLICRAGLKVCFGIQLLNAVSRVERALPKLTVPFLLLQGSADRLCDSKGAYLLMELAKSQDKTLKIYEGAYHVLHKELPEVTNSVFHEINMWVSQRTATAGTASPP

Sequence of human recombinant FAAH (O00519 whole entry): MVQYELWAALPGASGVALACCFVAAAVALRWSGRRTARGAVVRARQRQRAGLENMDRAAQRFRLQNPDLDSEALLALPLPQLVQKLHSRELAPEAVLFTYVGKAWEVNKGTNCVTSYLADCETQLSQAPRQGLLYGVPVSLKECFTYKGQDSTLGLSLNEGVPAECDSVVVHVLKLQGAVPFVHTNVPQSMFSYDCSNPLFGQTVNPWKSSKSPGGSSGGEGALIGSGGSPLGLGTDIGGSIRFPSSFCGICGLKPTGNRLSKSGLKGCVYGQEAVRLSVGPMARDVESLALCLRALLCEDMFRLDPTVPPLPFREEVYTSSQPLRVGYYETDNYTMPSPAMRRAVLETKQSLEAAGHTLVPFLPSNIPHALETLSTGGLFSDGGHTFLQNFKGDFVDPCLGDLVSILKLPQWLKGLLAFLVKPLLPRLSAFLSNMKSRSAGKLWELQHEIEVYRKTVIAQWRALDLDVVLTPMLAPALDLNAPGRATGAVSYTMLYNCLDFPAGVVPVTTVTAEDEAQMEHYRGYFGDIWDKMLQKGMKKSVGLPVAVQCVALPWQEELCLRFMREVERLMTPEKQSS

As for `N#Cc1ncn(C(=O)N2CC3(CCN(C(c4ccc5c(c4)COCO5)c4ccc5c(c4)COCO5)CC3)C2)n1` [Example 82, 1-(7-(bis(4H-benzo[d][1,3]dioxin-6-yl)methyl)-2,7-diazaspiro[3.5]nonane-2-carbonyl)-1H-1,2,4-triazole-3-carbonitrile], the half-inhibitory concentration (IC50) was over 50000 nM at human recombinant FAAH and 10 to 100 nM at human recombinant MAGL.

In the case of `N#Cc1ccc2c(c1)nnn2C(=O)N1CCC(N(c2ccc(C(F)(F)F)cc2)c2ccc3c(c2)OCO3)CC1` [Example 70, 1-(4-(benzo[d][1,3]dioxol-5-yl(4-(trifluoromethyl)phenyl)amino)piperidine-1-carbonyl)-1H-benzo[d][1,2,3]triazole-5-carbonitrile], the 50% inhibitory concentration (IC50) at human recombinant FAAH was 100 to 1000 nM; at human recombinant MAGL it was 1 to 10 nM.

`O=C(Oc1ccccn1)N1CCN(C(c2ccc3c(c2)COCO3)c2ccc3c(c2)COCO3)CC1` [Example 20, pyridin-2-yl 4-(bis(4H-benzo[d][1,3]dioxin-6-yl)methyl)piperazine-1-carboxylate]: the IC50 at human recombinant FAAH was over 50000 nM; at human recombinant MAGL, over 100 nM.

For `N#Cc1ncn(C(=O)N2CCC(N(c3ccc(C(F)(F)F)cc3)c3ccc4c(c3)OCO4)CC2)n1` [Example 71, 1-(4-(benzo[d][1,3]dioxol-5-yl(4-(trifluoromethyl)phenyl)amino)piperidine-1-carbonyl)-1H-1,2,4-triazole-3-carbonitrile], the values for the IC50 on human recombinant FAAH and on human recombinant MAGL were 100 to 1000 nM and 1 to 10 nM, respectively.

As for `O=C(N1CCN(C(c2ccc3c(c2)COCO3)c2ccc3c(c2)COCO3)CC1)n1nnc2c(Cl)cc(C(F)(F)F)cc21` [Example 42, (4-(bis(4H-benzo[d][1,3]dioxin-6-yl)methyl)piperazin-1-yl)(4-chloro-6-(trifluoromethyl)-1H-benzo[d][1,2,3]triazol-1-yl)methanone], the IC50 was over 20000 nM at human recombinant FAAH and 1 to 10 nM at human recombinant MAGL.

Consider `COc1ccc(C(c2ccc(OC)c(OC)c2)N2CCN(C(=O)n3nnc4ccc(C#N)cc43)CC2)cc1OC` [Example 93, 1-(4-(bis(3,4-dimethoxyphenyl)methyl)piperazine-1-carbonyl)-1H-benzo[d][1,2,3]triazole-6-carbonitrile], for which the IC50 was over 50000 nM at human recombinant FAAH and 10 to 100 nM on human recombinant MAGL.

Consider `N#Cc1ncn(C(=O)N2CC3CN(C(c4ccc5c(c4)COCO5)c4ccc5c(c4)COCO5)CC3C2)n1` (stereo not drawn) [Example 81, meso-1-(5-(bis(4H-benzo[d][1,3]dioxin-6-yl)methyl)octahydropyrrolo[3,4-c]pyrrole-2-carbonyl)-1H-1,2,4-triazole-3-carbonitrile], for which the figures for the half-maximal inhibitory concentration (IC50) on human recombinant FAAH and on human recombinant MAGL were 1000 to 10000 nM and 1 to 10 nM, respectively.

Take `N#Cc1ncn(C(=O)N2CCC(C(c3ccc4c(c3)COCO4)c3ccc4c(c3)COCO4)CC2)n1` [Example 129, 1-(4-(bis(4H-benzo[d][1,3]dioxin-6-yl)methyl)piperidine-1-carbonyl)-1H-1,2,4-triazole-3-carbonitrile]: the IC50 fell in the range of 1000 to 10000 nM at human recombinant FAAH and 1 to 10 nM at human recombinant MAGL.

Turning to `COc1ccc(N(c2ccc(F)cc2)C2CCN(C(=O)n3nnc4cc(C#N)ccc43)CC2)cc1` [Example 66, 1-(4-((4-fluorophenyl)(4-methoxyphenyl)amino)piperidine-1-carbonyl)-1H-benzo[d][1,2,3]triazole-5-carbonitrile], the IC50 lay in the range of 100 to 1000 nM on human recombinant FAAH and 1 to 10 nM on human recombinant MAGL.

`COc1ccc(N(c2ccc3c(c2)OCO3)C2CCN(C(=O)n3nnc4cc(C#N)ccc43)CC2)cc1` [Example 73, 1-(4-(benzo[d][1,3]dioxol-5-yl(4-methoxyphenyl)amino)piperidine-1-carbonyl)-1H-benzo[d][1,2,3]triazole-5-carbonitrile]: the IC50 at human recombinant FAAH was in the range of 100 to 1000 nM; at human recombinant MAGL, 1 to 10 nM.

For `N#Cc1ncn(C(=O)N2CCN(C(c3ccc4c(c3)COCO4)c3ccc4c(c3)COCO4)CC2)n1` [Example 36, 1-(4-(bis(4H-benzo[d][1,3]dioxin-6-yl)methyl)piperazine-1-carbonyl)-1H-1,2,4-triazole-3-carbonitrile], the IC50 was over 10000 nM at human recombinant FAAH and 10 to 100 nM at human recombinant MAGL.

Turning to `N#Cc1ccc2nnn(C(=O)N3CCC(N(c4ccc(F)cc4)c4ccc5c(c4)OCO5)CC3)c2c1` [Example 63, 1-(4-(benzo[d][1,3]dioxol-5-yl(4-fluorophenyl)amino)piperidine-1-carbonyl)-1H-benzo[d][1,2,3]triazole-6-carbonitrile], the IC50 is 100 to 1000 nM at human recombinant FAAH and 1 to 10 nM at human recombinant MAGL.

Take `N#Cc1ccc2c(c1)nnn2C(=O)N1CCC(N(c2ccc(F)cc2)c2ccc3c(c2)OCO3)CC1` [Example 64, 1-(4-(benzo[d][1,3]dioxol-5-yl(4-fluorophenyl)amino)piperidine-1-carbonyl)-1H-benzo[d][1,2,3]triazole-5-carbonitrile]: the results for the concentration for half-maximal inhibition (IC50) at human recombinant FAAH and on human recombinant MAGL were 10 to 100 nM and 1 to 10 nM, respectively.

For `N#Cc1ccc(C(c2ccc(C#N)cc2)N2CCN(C(=O)n3cnc(C#N)n3)CC2)cc1` [Example 102, 4,4′-((4-(3-cyano-1H-1,2,4-triazole-1-carbonyl)piperazin-1-yl)methylene)dibenzonitrile], the figures for the half-maximal inhibitory concentration (IC50) at human recombinant FAAH and on human recombinant MAGL were 1000 to 10000 nM and 1 to 10 nM, respectively.

`O=C(N1CCN(C(c2ccc3c(c2)COCO3)c2ccc3c(c2)COCO3)CC1)n1cccn1` [Example 1, (4-(bis(4H-benzo[d][1,3]dioxin-6-yl)methyl)piperazin-1-yl)(1H-pyrazol-1-yl)methanone]: the values for the IC50 at human recombinant FAAH and on human recombinant MAGL were over 50000 nM and over 100 nM, respectively.

For the molecule `C=COc1ccc(N(c2ccc(F)cc2)C2CCN(C(=O)n3nnc4cc(C#N)ccc43)CC2)cc1` [Example 77, 1-(4-((4-fluorophenyl)(4-(vinyloxy)phenyl)amino)piperidine-1-carbonyl)-1H-benzo[d][1,2,3]triazole-5-carbonitrile], the half-inhibitory concentration (IC50) at human recombinant FAAH lay within 100 to 1000 nM; at human recombinant MAGL, 1 to 10 nM.

As to `CN(CCOC(c1ccc2c(c1)COCO2)c1ccc2c(c1)COCO2)C(=O)n1nnc2ccc(C#N)cc21` [Example 55, N-(2-(bis(4H-benzo[d][1,3]dioxin-6-yl)methoxy)ethyl)-6-cyano-N-methyl-1H-benzo[d][1,2,3]triazole-1-carboxamide], the IC50 at human recombinant FAAH was in the range of 1000 to 10000 nM; on human recombinant MAGL, 1 to 10 nM.

For the molecule `N#Cc1ccc2nnn(C(=O)N3CCC(OC(c4ccc5c(c4)COCO5)c4ccc5c(c4)COCO5)CC3)c2c1` [Example 56, 1-(4-(bis(4H-benzo[d][1,3]dioxin-6-yl)methoxy)piperidine-1-carbonyl)-1H-benzo[d][1,2,3]triazole-6-carbonitrile], the figures for the IC50 at human recombinant FAAH and at human recombinant MAGL were over 10000 nM and 1 to 10 nM, respectively.

Take `N#Cc1ccc2nnn(C(=O)N3CCC(N(c4cccnc4)c4ccc5c(c4)OCO5)CC3)c2c1` [Example 74, 1-(4-(benzo[d][1,3]dioxol-5-yl(pyridin-3-yl)amino)piperidine-1-carbonyl)-1H-benzo[d][1,2,3]triazole-6-carbonitrile]: the concentration for half-maximal inhibition (IC50) at human recombinant FAAH fell in the range of 100 to 1000 nM; on human recombinant MAGL, 1 to 10 nM.

Turning to `O=C(N1CCN(C(c2ccc3c(c2)COCO3)c2ccc3c(c2)COCO3)CC1)n1ccnc1` [Example 9, (4-(bis(4H-benzo[d][1,3]dioxin-6-yl)methyl)piperazin-1-yl)(1H-imidazol-1-yl)methanone], the 50% inhibitory concentration (IC50) at human recombinant FAAH is over 10000 nM; on human recombinant MAGL, over 100 nM.

For `O=C(Oc1ccc([N+](=O)[O-])cc1F)N1CCN(C(c2ccc3c(c2)COCO3)c2ccc3c(c2)COCO3)CC1` [Example 19, 2-fluoro-4-nitrophenyl 4-(bis(4H-benzo[d][1,3]dioxin-6-yl)methyl)piperazine-1-carboxylate], the 50% inhibitory concentration (IC50) at human recombinant FAAH is over 50000 nM; on human recombinant MAGL, over 100 nM.

As to `O=C(C1CCN(C(c2ccc3c(c2)COCO3)c2ccc3c(c2)COCO3)CC1)n1nnc2ccccc21` [Example 52, (1H-benzo[d][1,2,3]triazol-1-yl)(1-(bis(4H-benzo[d][1,3]dioxin-6-yl)methyl)piperidin-4-yl)methanone], the 50% inhibitory concentration (IC50) on human recombinant FAAH is over 50000 nM; at human recombinant MAGL it was over 100 nM.

For the molecule `O=C(N1CCN(C(c2ccc3c(c2)COCO3)c2ccc3c(c2)COCO3)CC1)n1nnc2ccc(C(F)(F)F)cc21` [Example 44, (4-(bis(4H-benzo[d][1,3]dioxin-6-yl)methyl)piperazin-1-yl)(6-(trifluoromethyl)-1H-benzo[d][1,2,3]triazol-1-yl)methanone], the 50% inhibitory concentration (IC50) is over 10000 nM on human recombinant FAAH and 1 to 10 nM at human recombinant MAGL.

For `COc1ccc(C(c2ccc(OC)nc2)N2CCN(C(=O)n3cnc(C#N)n3)CC2)cn1` [Example 114, 1-(4-(bis(6-methoxypyridin-3-yl)methyl)piperazine-1-carbonyl)-1H-1,2,4-triazole-3-carbonitrile], the values for the half-maximal inhibitory concentration (IC50) on human recombinant FAAH and on human recombinant MAGL were about 10000 nM and 1 to 10 nM, respectively.

For `O=C(N1CCN(C(c2ccc3c(c2)COCO3)c2ccc3c(c2)COCO3)CC1)n1nnc2ccccc21` [Example 8, (1H-benzo[d][1,2,3]triazol-1-yl)(4-(bis(4H-benzo[d][1,3]dioxin-6-yl)methyl)piperazin-1-yl)methanone], the IC50 was over 20000 nM on human recombinant FAAH and 1 to 20 nM at human recombinant MAGL.

Turning to `C=COc1ccc(N(c2ccc(F)cc2)C2CCN(C(=O)n3nnc4ccc(C#N)cc43)CC2)cc1` [Example 76, 1-(4-((4-fluorophenyl)(4-(vinyloxy)phenyl)amino)piperidine-1-carbonyl)-1H-benzo[d][1,2,3]triazole-6-carbonitrile], the concentration for half-maximal inhibition (IC50) at human recombinant FAAH was 100 to 1000 nM; at human recombinant MAGL, 1 to 10 nM.

`CCN(CC)C(=O)N1CCN(C(c2ccc3c(c2)COCO3)c2ccc3c(c2)COCO3)CC1` [Example 18, 4-(bis(4H-benzo[d][1,3]dioxin-6-yl)methyl)-N,N-diethylpiperazine-1-carboxamide]: the IC50 on human recombinant FAAH was over 50000 nM; at human recombinant MAGL, over 100 nM.
